In patent publication US8022064B2, “Phenylpentadienoyl derivatives and their use as PAR 1 antagonists” (Pierre Fabre Medicament, priority 2006, dated 2011):

Biological target: T1, PAR-1 receptor (Cricetulus griseus, UniProt A0A8C2QJ57)
T1 construct: Chinese hamster ovarian (CHO) cells constituently express PAR-1 receptor; endogenous in cells; host or cells: CHO cells
T1 sequence (A0A8C2QJ57 22-428): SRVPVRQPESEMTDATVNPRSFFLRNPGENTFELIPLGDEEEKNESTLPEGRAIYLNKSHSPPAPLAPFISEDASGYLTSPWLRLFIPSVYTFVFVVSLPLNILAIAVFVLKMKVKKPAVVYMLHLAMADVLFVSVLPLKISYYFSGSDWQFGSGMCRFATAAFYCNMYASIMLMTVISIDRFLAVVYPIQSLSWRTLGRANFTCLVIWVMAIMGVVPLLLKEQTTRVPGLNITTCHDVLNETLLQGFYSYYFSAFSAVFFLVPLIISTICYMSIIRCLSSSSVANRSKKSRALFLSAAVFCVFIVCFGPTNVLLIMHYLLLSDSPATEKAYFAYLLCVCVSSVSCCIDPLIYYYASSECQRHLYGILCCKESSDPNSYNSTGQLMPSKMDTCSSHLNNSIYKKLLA
Test: Calcium release (FLIPR) antagonism of SFLLR-activated PAR-1 in CHO cells
Type: cell-based, Chinese hamster
Settings: SFLLR agonist, Schild method from EC50 shifts at three concentrations, read-out: pA2 (converted)
Description: In a variety of cell types, activation of PAR-1 receptors by the SFLLR peptide (a selective PAR-1 agonist) triggers an intracellular signal cascade leading to the release of calcium by the endoplasmic reticulum. Chinese hamster ovarian (CHO) cells constituently express PAR-1 receptor. In this cell line, the release of calcium consecutive to receptor activation by SFLLR is measured by a fluorometry technique (fluorometric imaging plate reader, or FLIPR) using a selective probe for calcium (Fluo-3AM). The emission of fluorescence is pharmacologically proportional to the efficiency of the PAR-1 agonist and to its concentration.
Culture medium: Ham's F-12 (Ham, R. G., Proc. Nat. Acad. Sci. 1965, 53: 288) supplemented with 10% fetal calf serum and […].
Fluorescent probe: Fluo-3AM (4 μM; Teflabs, Austin, Tex., USA)
Agonist: SFLLR-NH2 (Serine, phenylalanine, leucine, leucine, arginine).
Methods: CHO cells are inoculated in 96-well plates (60,000 cells per well) in the presence of 200 μl of culture medium for 24 hours. The cells are incubated with the calcium fluorescent probe for 1 hour at 37° C. The cells are then washed 10 minutes before the signal is measured. PAR-1 antagonist is then injected (0.01 μM to 10 μM). The plates are placed in the FLIPR (Molecular Devices, UK) to measure calcium fluorescence at two wavelengths (488 nm and 540 nm: Sullivan et al., Calcium Signaling Protocols 1999, 125-136). Measurements are taken for 5 min before the antagonist is added and for 10 min following its administration. Maximum fluorescence minus baseline fluorescence is measured in 4 different wells. The test is carried out in duplicate. Under these conditions, the derivatives of the present invention were identified as PAR-1 receptor antagonists (antagonism >60% of the calcium signal at 10 μM). The dose-response curves (0.01 μM to 32 μM) obtained with the SFLLR agonist allowed determination of the effective concentration inducing 50% of the maximum effect (EC50). The strengths (pA2) of some of the PAR-1 antagonists described in the present invention were calculated using the method of Arunlakshana and Schild (Brit. J. Pharmacol., 1959, 14: 48-58) from the EC50 shifts observed at three concentrations.

| SMILES | Kb [nM] |
| --- | --- |
| N#Cc1ccccc1/C=C/C=C/C(=O)N1CCN(c2ccccn2)CC1 [Example 1, 2-[5-Oxo-5-(4-pyridin-2-yl-piperazin-1-yl)-penta-1,3-dienyl]-benzonitrile] | 316 |
| O=C(C=CC=Cc1ccccc1[N+](=O)[O-])N1CCN(c2ccccn2)CC1 [Example 21, 5-(2-Nitro-phenyl)-1-(4-pyridin-2-yl-piperazin-1-yl)-penta-2,4-dien-1-one] | 77.6 |
| O=C(/C=C/C=C/c1ccccc1Cl)N1CCN(C2CCCC2)CC1 [Example 9, 5-(2-Chloro-phenyl)-1-(4-cyclopentyl-piperazin-1-yl)-penta-2,4-dien-1-one] | 229 |
| N#Cc1ccccc1/C=C/C=C/C(=O)N1CCN(C2CCCC2)CC1 [Example 2, 2-[5-(4-Cyclopentyl-piperazin-1-yl)-5-oxo-penta-1,3-dienyl]-benzonitrile] | 234 |

Next, values leading:

| Kb [nM] | SMILES |
| --- | --- |
| 58.9 | O=C(/C=C/C=C/c1ccccc1[N+](=O)[O-])N1CCN(c2ccccc2)CC1 [Example 16, 5-(2-Nitro-phenyl)-1-(4-phenyl-piperazin-1-yl)-penta-2,4-dien-1-one] |
| 69.2 | O=C(/C=C/C=C/c1ccccc1[N+](=O)[O-])N1CCN(C2CCCC2)CC1 [Example 18, 1-(4-Cyclopentyl-piperazin-1-yl)-5-(2-nitro-phenyl)-penta-2,4-dien-1-one] |
